What was measured:
[1] = tested on: hiPS cell line 253G1; experiment: Human pluripotent stem cell (hiPS cell), EZSPHERE plate, ATP assay (Experimental Example 13); assay type: cell-based; settings: for relative value (%): hiPS 253G1, EZSPHERE plate, 5 μM, 3 days, RLU of DMSO addition = 100%; for proliferation activity (in words): human pluripotent stem cells under three-dimensional conditions
Description: hiPS cell line 253G1 (purchased from RIKEN) was cultured on a dish coated with vitronectin VTN-N (manufactured by Thermo Fisher Scientific) using mTeSR1 (registered trade mark) medium (manufactured by STEMCELL Technologies). The above-mentioned cells in the proliferation phase were washed with PBS (manufactured by Fujifilm Corporation Wako Pure Chemical Industries, Ltd.), TrypLE Select (registered trade mark) (manufactured by Thermo Fisher Scientific) was added and the mixture was incubated at 37° C. for 3 min to remove the detaching solution. The medium was added and the cells were detached by pipetting. Thereafter, the supernatant was removed by centrifugation.
The aforementioned cells were suspended in a medium containing 10 μM Y-27632 (manufactured by Fujifilm Corporation Wako Pure Chemical Industries, Ltd.) and seeded in a 96-well EZSPHERE plate (manufactured by AGC TECHNO GLASS CO., LTD., #4860-900) at a cell concentration of 10000 cells/200 μL/well. […] The amount of each compound solution to be added was 2 μL/well. As a control, a DMSO solution dissolved in a medium was added (DMSO final concentration 0.05%). The medium was exchanged by half the volume every day, and each compound solution was also added to make the compound concentration constant.

[2] = tested on: human ovarian cancer cell line SKOV3; experiment: Action on SKOV3 cell-2: 3D (deacylated gellan gum) and 2D culture, EGF medium, ATP assay (Experimental Example 3); settings: for relative value of RLU (number of viable cells): 4 days, compound non-addition = 100%
Description: According to the method of patent document 1 (WO 2014/017513), a composition of McCoy's 5a medium (manufactured by Sigma-Aldrich) containing 0.015% (w/v) deacylated gellan gum (KELCOGEL CG-LA, manufactured by Sansho Co., Ltd.) and 15% (v/v) FBS, 30 ng/mL human EGF (manufactured by PEPROTECH) was prepared using FCeM-series Preparation Kit (manufactured by Wako Pure Chemical Industries, Ltd.). In a single layer culture, a non-addition medium composition not containing deacylated gellan gum was prepared. Then, human ovarian cancer cell line SKOV3 (manufactured by DS PHARMA BIO MEDICAL) was suspended in the above-mentioned medium composition added with deacylated gellan gum, and dispensed into the wells of a 384 well flat bottom Ultr-low Attachment surface microplate (manufactured by Corning Incorporated, #3827) at 1000 cells/36 μL/well (three-dimensional culture (3D)). In a single layer culture (2D), human ovarian cancer cell line SKOV3 was suspended in the above-mentioned medium composition not containing deacylated gellan gum, and dispensed into the wells of a 384 well flat bottom microplate (manufactured by Corning Incorporated, #3712) at 400 cells/36 μL per well. After dispensing, the compound to be used in the present invention dissolved in dimethyl sulfoxide (DMSO) was added by 4 μL each at a final concentration of 0, 1, 5, 10, 20 μM, and continuously cultured for 4 days. Each plate was cultured in a standing state in a CO2 incubator (37° C., 5% CO2) for 4 days. An ATP reagent (40 μL) (CellTiter-Glo (registered trade mark) Luminescent Cell Viability Assay, manufactured by Promega) was added to the culture medium on day 4, and the mixture was stirred by a plateshaker (manufactured by AS ONE Corporation, Micro plate mixer NS-P) at room temperature for 15 min. The luminescence intensity (RLU value) was measured by EnSpire (manufactured by Perkin Elmer) and the luminescence value of the medium alone was subtracted to measure the number of viable cells.

[3] = tested on: plural animal cell lines; experiment: Animal cell lines, summary over the cell lines (Experimental Example 15); assay type: cell-based; settings: animal cell lines under three-dimensional conditions
Description: (§1) Various animal cell lines were precultured (single layer culture) as follows in respective media. Chinese hamster ovary-derived cell line CHO-K1 (manufactured by DS PHARMA BIO MEDICAL, 10% fetal bovine serum (FBS, manufactured by Corning)-containing Ham's F-12 medium (manufactured by Fujifilm Wako Pure Chemical Corporation)), Cercopithecus aethiops kidney epithelium-derived cell line Vero (purchased from JCRB cell bank, 5% FBS-containing Medium 199 medium (manufactured by Life Technologies)). The above-mentioned cells in the logarithmic growth phase were washed with PBS, a 0.25 w/v % trypsin-1 mmol/L EDTA (ethylenediaminetetraacetic acid) solution (manufactured by Fujifilm Wako Pure Chemical Corporation) was added, and adherent cells were detached by incubating at 37° C. for 3 min. Each medium was added and the mixture was centrifuged and resuspended in the same medium.
(§2) The aforementioned various animal cells were suspended in respective deacylated gellan gum-containing or not containing media (deacylated gellan gum concentration was 0.02 w/v % in Ham's F-12 medium, 0.015 w/v % in Medium 199 medium), and seeded in a 96 well low attachment U-bottom plate (manufactured by Corning, #4520, deacylated gellan gum-free medium), or a low attachment flat bottom plate (manufactured by Corning, #3474, deacylated gellan gum-containing medium) at a cell concentration of 700-2000 cells/90 μL/well (all 3D culture). […] The amount of each compound solution to be added was […]. As a control, a DMSO solution dissolved in a medium was added (DMSO final concentration 0.1%). […] When compared with the compound non-addition (control), one showing a value of not more than 119% as -, one showing a value of not less than 120% as ◯, and one showing a value of not less than 150% as ⊚ are shown in the twenty-third table and the twenty-fourth table.

[4] = tested on: human epithelial-like cell cancer-derived cell line A431; experiment: Cells cultured by hanging drop method, ATP assay (Experimental Example 12); assay type: cell-based
Description: (§3) Human epithelial-like cell cancer-derived cell line A431 (manufactured by ATCC) was cultured using 10% FBS and 1% MEM non-essential amino acid solution (MEM NEAA, manufactured by Wako Pure Chemical Industries, Ltd.)-containing EMEM (manufactured by Wako Pure Chemical Industries, Ltd.)). In addition, bone marrow-derived human mesenchymal stem cells (BM-hMSC, manufactured by PromoCell) were cultured using a mesenchymal stem cell proliferation medium (manufactured by PromoCell). Each of the above-mentioned cells in the logarithmic growth phase was washed with PBS, a 0.25 w/v % trypsin-1 mmol/L EDTA (ethylenediaminetetraacetic acid) solution (manufactured by Wako Pure Chemical Industries, Ltd.) was added, and the cells were detached by incubating at 37° C. for 3 min. Each medium was added, the mixture was centrifuged, and the supernatant was removed.
(§4) The cell suspension was seeded by 10 μL in 15 drops on the back surface of the lid of a 3.5 cm dish (manufactured by Falcon, #351008) to form droplets. At this time, as a control, a medium supplemented with DMSO (final concentration of DMSO: 0.05%) was seeded by 10 μL in 15 drops. The lid was returned to a 3.5 cm dish added with 2 mL of PBS, and cultured for 2 days in an incubator at 37° C., 5% CO2. The cultured droplets were collected in a 1.5 mL tube, and the medium was added to a final volume of 150 μL.

[5] = tested on: Bone marrow-derived human mesenchymal stem cells (BM-hMSC); experiment: as above; assay type: cell-based
Description: as §3, §4

[6] = tested on: Human umbilical vein endothelial cells; experiment: Vascular endothelial cell, 3D culture, ATP assay (Experimental Example 14); assay type: cell-based
Description: Human umbilical vein endothelial cells (manufactured by PromoCell) were precultured in Endothelial Cell proliferation Medium (manufactured by PromoCell) medium (single layer culture). The above-mentioned cells in the logarithmic growth phase were washed with PBS, DetachKit (manufactured by PromoCell) was added, and adherent cells were detached by incubating at 37° C. for 3 min. The medium was added and the mixture was centrifuged and resuspended in the same medium.
The aforementioned cells were suspended in respective deacylated gellan gum-containing or not containing media (deacylated gellan gum concentration was 0.015 w/v %), and seeded in a 96 well low attachment U-bottom plate (manufactured by Corning, #4520, deacylated gellan gum-free medium), or a low attachment flat bottom plate (manufactured by Corning, #3474, deacylated gellan gum-containing medium) at a cell concentration of 700-2000 cells/90 μL/well (all 3D culture). […] The amount of each compound solution to be added was 10 μL/well. As a control, a DMSO solution dissolved in a medium was added (DMSO final concentration 0.1%).

[7] = tested on: SKOV3 cells (human ovarian cancer-derived cell line); experiment: Cell proliferation activity in three-dimensional medium FCeM, ATP assay (Experimental Example 1); assay type: cell-based; settings: SKOV3, 3D medium FCeM, 4 days, DMSO control = 100%, average of two tests; for proliferation rate (%): compound 5 μM
Description: A cell proliferation promoting effect when the compound to be used in the present invention was added to a three-dimensional medium was studied. Specifically, precultured (adhesion cultured) SKOV3 cells (human ovarian cancer-derived cell line) were recovered and suspended in a three-dimensional cell culture medium (“FCeM (registered trade mark)” (Nissan chemical corporation)) to prepare a cell suspension. […] The cell suspension seeded in the plate was stood overnight at 37° C., 5% CO2. Then, a DMSO diluted solution (4.44 μL) of the compound to be used in the present invention was added at a final concentration of 5 μM (or two steps of […] and 10 μM) (no stirring after addition). After addition of each compound, the mixtures were stood for 4 days at 37° C., 5% CO2. […] The luminescence intensity (RLU value) was measured by FlexStation3 (manufactured by Molecular Devices), and cell proliferation was evaluated.
The proliferation rate was calculated based on the control (cells added with DMSO without containing the compound to be used in the present invention) as the standard (100%). The values shown in the tables are average values of the results of two tests.

[8] = tested on: Cercopithecus aethiops kidney epithelium-derived cell line Vero; experiment: Animal cell lines, 3D culture, ATP assay (Experimental Example 15); assay type: cell-based; settings: 4 days
Description: as §1, §2

[9] = tested on: Chinese hamster ovary-derived cell line CHO-K1; experiment: as above; assay type: cell-based; settings: CHO-K1; low attachment flat bottom plate (deacylated gellan gum-containing medium); 5 μM; 4 days
Description: as §1, §2

SMILES: CCC(=NNC(=O)NC(C)c1cccc(O)c1)c1ccc(O)c(C)c1O (centres unmarked) [k-1:I-10]
- relative value (%) [1]: 194%
- proliferation activity (in words) [1]: promoted proliferation activity in human pluripotent stem cells
- relative value of RLU (number of viable cells) ([2]; 2D single layer culture, 1 μM): 99%
- relative value of RLU (number of viable cells) ([2]; 2D single layer culture, 5 μM): 98%
- relative value of RLU (number of viable cells) ([2]; 2D single layer culture, 10 μM): 99%
- relative value of RLU (number of viable cells) ([2]; 2D single layer culture, 20 μM): 100%
- relative value of RLU (number of viable cells) ([2]; 3D culture (deacylated gellan gum), 1 μM): 100%
- relative value of RLU (number of viable cells) ([2]; 3D culture (deacylated gellan gum), 5 μM): 135%
- relative value of RLU (number of viable cells) ([2]; 3D culture (deacylated gellan gum), 10 μM): 181%
- relative value of RLU (number of viable cells) ([2]; 3D culture (deacylated gellan gum), 20 μM): 197%
- cell proliferation promoting effect (in words) ([2]; single layer culture (2D) of SKOV3 cells): a favorable cell proliferation promoting effect was not observed
- cell proliferation promoting effect (in words) ([2]; three-dimensional culture (3D) of SKOV3 cells): exhibited cell proliferation promoting effect at a wide concentration range

SMILES: CCC(=NNC(=O)CNc1ccccc1)c1ccc(O)c(C)c1O [k-1:H-1]
- relative value (%) [1]: 166%
- proliferation activity (in words) [1]: promoted proliferation activity in human pluripotent stem cells
- proliferation activity (in words) [3]: promoted proliferation activity in plural animal cell lines
- cell number (in words) ([4]; A431 cell line, three-dimensional cell culture by the hanging drop method): showed an effect of increasing the number
- cell number (relative value) ([4]; A431 cell, hanging drop, 5 μM, 2 days, control = 100%): 252%
- cell number (relative value) ([5]; BM-hMSC, hanging drop, 5 μM, 2 days, control = 100%): 186%
- cell number (in words) ([5]; bone marrow-derived human mesenchymal stem cells, hanging drop method): showed an effect of increasing the number
- relative value of RLU (number of viable cells) ([6]; HUVEC, low attachment U-bottom plate, 5 μM, 4 days, no-addition = 100%): 820%
- proliferation activity (in words) ([6]; human umbilical vein endothelial cells under three-dimensional conditions): promoted proliferation activity in human umbilical vein endothelial cells
- proliferation rate (%) [7]: 233.26%
- number of viable cells (RLU), relative value to control (100%) ([8]; low attachment U-bottom plate, 5 μM): ⊙
- number of viable cells (RLU), relative value to control (100%) ([8]; low attachment U-bottom plate, 10 μM): ⊙
- number of viable cells (RLU), relative value to control (100%) ([8]; low attachment flat bottom plate (deacylated gellan gum-containing medium), 5 μM): ⊙
- number of viable cells (RLU), relative value to control (100%) ([8]; low attachment flat bottom plate (deacylated gellan gum-containing medium), 10 μM): ⊙
- number of viable cells (RLU), relative value to control (100%) [9]: ◯ (one showing a value of not less than 120% as ◯)

SMILES: CC(=NNC(=O)CNc1ccccc1C)c1ccc(O)c(C)c1O [k-2:H-2]
- proliferation rate (%) [7]: 131.13%

SMILES: CCC(=NNC(=O)CNc1cccc(C)c1)c1c(O)cc(O)c(C)c1O [k-3:H-3]
- proliferation rate (%) [7]: 134.65%

SMILES: CC/C(=N\C(=O)Nc1ccccc1)c1ccc(O)c(C)c1O [k-1:A-5]
- proliferation rate (%) (5 μM) ([7]; 5 μM): 113%
- proliferation rate (%) (10 μM) ([7]; 10 μM): 124.3%

SMILES: CC(=NNC(=O)CNc1cccc2ccccc12)c1ccc(O)c(C)c1O [k-2:H-6]
- proliferation rate (%) [7]: 116.79%

SMILES: CCC(=NNC(=O)CNc1ccc(C)cc1)c1ccc(O)c(C)c1O [k-1:H-4]
- proliferation rate (%) [7]: 105.07%

SMILES: CCOc1ccc(NCC(=O)NN=C(CC)c2ccc(O)c(C)c2O)cc1 [k-1:H-9]
- proliferation rate (%) [7]: 95.96%

SMILES: CCC(=NNC(=O)C(CC)Nc1ccccc1)c1c(O)cc(O)c(C)c1O (centres unmarked) [k-3:H-7]
- proliferation rate (%) [7]: 126.34%

SMILES: Cc1c(O)ccc(C(CC(C)C)=NNC(=O)CNc2ccccc2)c1O [k-5:H-1]
- proliferation rate (%) [7]: 148.88%

SMILES: Cc1ccc(NCC(=O)NN=C(CC(C)C)c2ccc(O)c(C)c2O)cc1 [k-5:H-4]
- proliferation rate (%) [7]: 114.76%

SMILES: CCC(=NNC(=O)CNc1ccccc1)c1c(O)cc(O)c(C)c1O [k-3:H-1]
- proliferation rate (%) [7]: 133.76%

— patent US20200165194A1, “ADDITIVE COMPOSITION FOR CULTURE MEDIUM, ADDITIVE COMPOUND FOR CULTURE MEDIUM, AND METHOD FOR CULTURE OF CELLS OR TISSUE USING SAME” (NISSAN CHEMICAL CORPORATION, priority 2017, published 2020)
